# Values quoted from earlier work in patent US20230066204A1 (OYE Therapeutics, Inc, priority 2019, published 2023).
# System: rat
# Conditions: administered intravenously
smiles,measurement,value
Cn1c(=O)c2c(ncn2C)n(C)c1=O [Caffeine],accelerating emergence from anesthesia,effective in accelerating emergence from anesthesia
